Test results published in patent publication US12171886B2, “Mussel adhesive protein-based photothermal agent and photothermal-responsive adhesive nanoparticles” (POSTECH RESEARCH AND BUSINESS DEVELOPMENT FOUNDATION, priority 2018, dated 2024).

Test: Absorbance of nanoparticles in the near-infrared region (UV-vis spectrometer)
Assay type: physicochemical
Details: control solutions without DOPA-metal complex
Protocol: Absorbances in the near-infrared region of the FeMAP NPs and VMAP NPs prepared in Example 1-3 were analyzed through a UV-vis spectrometer, and the analysis results are shown in FIG. 4.

Row | Compound | absorbance, absorption spectrum 500 nm to 900 nm
1 | [Cl][V]([Cl])[Cl] [VCl3] | almost no absorbance
2 | [Cl][Fe]([Cl])[Cl] [FeCl3] | almost no absorbance
